Results on four molecules are retold here after patent US11034650B2, “Compounds useful for treating a Mannheimia haemolytica or Histophilus somni infection” (Intervet Inc., priority 2016, dated 2021).

Values after ≈ are worked out from the molar mass of the structure shown.

The first assay deals with Pasteurella multocida PM 6267 (P 2225 (L386), reference strain, mouse infection strain). The assay can be described thus: MIC, broth-microdilution (CLSI VET01-A4), strain PM 6267. The assay is classed as cell-based. Conditions: Pasteurella multocida strain PM 6267, broth-microdilution; unit assumed. In a few lines:
(§1)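 Test articles are arrayed as a twofold dilution range in microdilution trays. Wells are scored by naked eye, and the MIC is taken where turbidity first disappears.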
Background: In broth dilution the organism is exposed to a series of concentrations in liquid medium.
On to `CC(C)[C@H](NC(=O)c1ccc(C#Cc2ccc(CNC3CCCCC3)cc2)cc1)C(=O)NO` [Compound 208], for which the MIC PM 6267 is 0.2 µg/mL (≈ 0.447 µM).
Same read-out and setting: under `CC(C)[C@H](NC(=O)c1ccc(C#Cc2ccc(CNCc3ncc[nH]3)cc2)cc1)C(=O)NO` [Compound 173] stands ≤ 0.1 µg/mL; under `COc1ccc(CNCc2ccc(C#Cc3ccc(C(=O)N[C@H](C(=O)NO)C(C)(C)S(C)(=O)=O)cc3)cc2)cc1` [Compound 260], ≤ 0.1 µg/mL; under `CC[C@H](C)[C@H](NC(=O)c1ccc(C#Cc2ccc(CNCCCOC)cc2)cc1)C(=O)NO` [Compound 177], 0.8 µg/mL (≈ 1.77 µM).

A further assay relates to Mannheimia haemolytica MH 6357 (M7/2, reference strain, cattle infection strain). The assay can be described thus: MIC, broth-microdilution (CLSI VET01-A4), strain MH 6357. The class given is cell-based. Conditions: Mannheimia haemolytica strain MH 6357, broth-microdilution; unit assumed. In short, it runs like this: as §1
For `CC(C)[C@H](NC(=O)c1ccc(C#Cc2ccc(CNC3CCCCC3)cc2)cc1)C(=O)NO` [Compound 208], the MIC MH 6357 was determined as 12.5 µg/mL (≈ 27.9 µM).
Regarding `CC(C)[C@H](NC(=O)c1ccc(C#Cc2ccc(CNCc3ncc[nH]3)cc2)cc1)C(=O)NO` [Compound 173], the MIC MH 6357 was determined as 3.1 µg/mL (≈ 6.96 µM).
With `COc1ccc(CNCc2ccc(C#Cc3ccc(C(=O)N[C@H](C(=O)NO)C(C)(C)S(C)(=O)=O)cc3)cc2)cc1` [Compound 260], the MIC MH 6357 was found to be 1.6 µg/mL (≈ 2.84 µM).
Same read-out and setting: under `CC[C@H](C)[C@H](NC(=O)c1ccc(C#Cc2ccc(CNCCCOC)cc2)cc1)C(=O)NO` [Compound 177] stands 3.1 µg/mL (≈ 6.86 µM).

The next assay concerns Mannheimia haemolytica MH 6374 (ATCC 33396, reference strain). Description: MIC, broth-microdilution (CLSI VET01-A4), strain MH 6374. The class given is cell-based. Conditions: Mannheimia haemolytica strain MH 6374, broth-microdilution; unit assumed. In a few lines: as §1
`CC(C)[C@H](NC(=O)c1ccc(C#Cc2ccc(CNC3CCCCC3)cc2)cc1)C(=O)NO` [Compound 208] came in with an MIC MH 6374 of 12.5 µg/mL (≈ 27.9 µM).
Consider `CC(C)[C@H](NC(=O)c1ccc(C#Cc2ccc(CNCc3ncc[nH]3)cc2)cc1)C(=O)NO` [Compound 173], for which the MIC MH 6374 is 3.1 µg/mL (≈ 6.96 µM).
The molecule `COc1ccc(CNCc2ccc(C#Cc3ccc(C(=O)N[C@H](C(=O)NO)C(C)(C)S(C)(=O)=O)cc3)cc2)cc1` [Compound 260] yielded an MIC MH 6374 of 0.4 µg/mL (≈ 0.71 µM).
Turning to `CC[C@H](C)[C@H](NC(=O)c1ccc(C#Cc2ccc(CNCCCOC)cc2)cc1)C(=O)NO` [Compound 177], the MIC MH 6374 was 6.3 µg/mL (≈ 14 µM).

In the next assay the test system is Pasteurella multocida PM 10775 (080130003051, BRD field isolate). The assay can be described thus: MIC, broth-microdilution (CLSI VET01-A4), strain PM 10775. The class given is cell-based. Conditions: Pasteurella multocida strain PM 10775, broth-microdilution; unit assumed. In short, it runs like this: as §1
For `CC(C)[C@H](NC(=O)c1ccc(C#Cc2ccc(CNC3CCCCC3)cc2)cc1)C(=O)NO` [Compound 208], the MIC PM 10775 is ≤ 0.1 µg/mL.
Still for that read-out and setting: under `CC(C)[C@H](NC(=O)c1ccc(C#Cc2ccc(CNCc3ncc[nH]3)cc2)cc1)C(=O)NO` [Compound 173] stands ≤ 0.1 µg/mL.
Still for that read-out and setting: in the case of `COc1ccc(CNCc2ccc(C#Cc3ccc(C(=O)N[C@H](C(=O)NO)C(C)(C)S(C)(=O)=O)cc3)cc2)cc1` [Compound 260] it was ≤ 0.1 µg/mL; in that of `CC[C@H](C)[C@H](NC(=O)c1ccc(C#Cc2ccc(CNCCCOC)cc2)cc1)C(=O)NO` [Compound 177], ≤ 0.1 µg/mL.

The test system of the next assay is Mannheimia haemolytica MH 13093 (XB0472-6014.1, BRD field isolate). Description: MIC, broth-microdilution (CLSI VET01-A4), strain MH 13093. The assay is classed as cell-based. Conditions: Mannheimia haemolytica strain MH 13093, broth-microdilution; unit assumed. In a few lines: as §1
For the molecule `CC(C)[C@H](NC(=O)c1ccc(C#Cc2ccc(CNC3CCCCC3)cc2)cc1)C(=O)NO` [Compound 208], the MIC MH 13093 was 12.5 µg/mL (≈ 27.9 µM).
Molecule `CC(C)[C@H](NC(=O)c1ccc(C#Cc2ccc(CNCc3ncc[nH]3)cc2)cc1)C(=O)NO` [Compound 173] registered an MIC MH 13093 of 6.3 µg/mL (≈ 14.1 µM).
With `COc1ccc(CNCc2ccc(C#Cc3ccc(C(=O)N[C@H](C(=O)NO)C(C)(C)S(C)(=O)=O)cc3)cc2)cc1` [Compound 260], the MIC MH 13093 was 0.8 µg/mL (≈ 1.42 µM).
Still for that read-out and setting: under `CC[C@H](C)[C@H](NC(=O)c1ccc(C#Cc2ccc(CNCCCOC)cc2)cc1)C(=O)NO` [Compound 177] stands 6.3 µg/mL (≈ 14 µM).

Another assay deals with Mannheimia haemolytica MH 13065 (XB0446-6003.9, BRD field isolate). Description: MIC, broth-microdilution (CLSI VET01-A4), strain MH 13065. The conditions noted are these: Mannheimia haemolytica strain MH 13065, broth-microdilution; unit assumed. The class given is cell-based. In short, it runs like this:
as §1
The molecule `CC(C)[C@H](NC(=O)c1ccc(C#Cc2ccc(CNC3CCCCC3)cc2)cc1)C(=O)NO` [Compound 208] yielded an MIC MH 13065 of 12.5 µg/mL (≈ 27.9 µM).
Turning to `CC(C)[C@H](NC(=O)c1ccc(C#Cc2ccc(CNCc3ncc[nH]3)cc2)cc1)C(=O)NO` [Compound 173], the MIC MH 13065 was 6.3 µg/mL (≈ 14.1 µM).
Still for that read-out and setting: under `COc1ccc(CNCc2ccc(C#Cc3ccc(C(=O)N[C@H](C(=O)NO)C(C)(C)S(C)(=O)=O)cc3)cc2)cc1` [Compound 260] stands 0.4 µg/mL (≈ 0.71 µM); under `CC[C@H](C)[C@H](NC(=O)c1ccc(C#Cc2ccc(CNCCCOC)cc2)cc1)C(=O)NO` [Compound 177], 6.3 µg/mL (≈ 14 µM).

For another assay, the system named is Mannheimia haemolytica MH 10720 (154, BRD field isolate). The assay can be described thus: MIC, broth-microdilution (CLSI VET01-A4), strain MH 10720. The class given is cell-based. Conditions: Mannheimia haemolytica strain MH 10720, broth-microdilution; unit assumed. In a few lines: as §1
Regarding `CC(C)[C@H](NC(=O)c1ccc(C#Cc2ccc(CNC3CCCCC3)cc2)cc1)C(=O)NO` [Compound 208], the MIC MH 10720 came to 3.1 µg/mL (≈ 6.93 µM).
The same measure, in the same setting: in the case of `CC(C)[C@H](NC(=O)c1ccc(C#Cc2ccc(CNCc3ncc[nH]3)cc2)cc1)C(=O)NO` [Compound 173] it was 0.8 µg/mL (≈ 1.8 µM); in that of `COc1ccc(CNCc2ccc(C#Cc3ccc(C(=O)N[C@H](C(=O)NO)C(C)(C)S(C)(=O)=O)cc3)cc2)cc1` [Compound 260], ≤ 0.1 µg/mL.
Still for that read-out and setting: in the case of `CC[C@H](C)[C@H](NC(=O)c1ccc(C#Cc2ccc(CNCCCOC)cc2)cc1)C(=O)NO` [Compound 177] it was 1.6 µg/mL (≈ 3.54 µM).

Another assay deals with Pasteurella multocida PM 12080 (IV102277-0093, BRD field isolate). Description: MIC, broth-microdilution (CLSI VET01-A4), strain PM 12080. The assay is classed as cell-based. Conditions: Pasteurella multocida strain PM 12080, broth-microdilution; unit assumed. In a few lines:
as §1
Molecule `CC(C)[C@H](NC(=O)c1ccc(C#Cc2ccc(CNC3CCCCC3)cc2)cc1)C(=O)NO` [Compound 208] returned an MIC PM 12080 of 0.2 µg/mL (≈ 0.447 µM).
Same read-out and setting: in the case of `CC(C)[C@H](NC(=O)c1ccc(C#Cc2ccc(CNCc3ncc[nH]3)cc2)cc1)C(=O)NO` [Compound 173] it was 0.4 µg/mL (≈ 0.898 µM); in that of `COc1ccc(CNCc2ccc(C#Cc3ccc(C(=O)N[C@H](C(=O)NO)C(C)(C)S(C)(=O)=O)cc3)cc2)cc1` [Compound 260], ≤ 0.1 µg/mL.
Same read-out and setting: in the case of `CC[C@H](C)[C@H](NC(=O)c1ccc(C#Cc2ccc(CNCCCOC)cc2)cc1)C(=O)NO` [Compound 177] it was 1.6 µg/mL (≈ 3.54 µM).

The subject of a further assay is Mannheimia haemolytica MH 12587 (1071, BRD field isolate, macrolide-resistance: erm+, E+). The assay can be described thus: MIC, broth-microdilution (CLSI VET01-A4), strain MH 12587. Conditions: Mannheimia haemolytica strain MH 12587, broth-microdilution; unit assumed. The class given is cell-based. In short, it runs like this: as §1
Take `CC(C)[C@H](NC(=O)c1ccc(C#Cc2ccc(CNC3CCCCC3)cc2)cc1)C(=O)NO` [Compound 208]: the MIC MH 12587 is 25 µg/mL (≈ 55.9 µM).
Consider `CC(C)[C@H](NC(=O)c1ccc(C#Cc2ccc(CNCc3ncc[nH]3)cc2)cc1)C(=O)NO` [Compound 173], for which the MIC MH 12587 was found to be 6.3 µg/mL (≈ 14.1 µM).
Still for that read-out and setting: under `COc1ccc(CNCc2ccc(C#Cc3ccc(C(=O)N[C@H](C(=O)NO)C(C)(C)S(C)(=O)=O)cc3)cc2)cc1` [Compound 260] stands 1.6 µg/mL (≈ 2.84 µM).
Still for that read-out and setting: in the case of `CC[C@H](C)[C@H](NC(=O)c1ccc(C#Cc2ccc(CNCCCOC)cc2)cc1)C(=O)NO` [Compound 177] it was 12.5 µg/mL (≈ 27.7 µM).

In the next assay the test system is Pasteurella multocida PM 6391 (ATCC 43137, reference strain). The assay can be described thus: MIC, broth-microdilution (CLSI VET01-A4), strain PM 6391. The assay is classed as cell-based. The conditions noted are these: Pasteurella multocida strain PM 6391, broth-microdilution; unit assumed. As to the method: For example, representative compounds were tested against ***, Mannheimia haemolytica and Pasteurella multocida, using the conventional broth-dilution assay.
The Minimum inhibitory concentrations (MIC) of compounds according to the invention for a number of veterinary bacterial pathogens were determined by the broth-microdilution method according to CLSI document VET01-A4.
Microdilution trays containing a doubling dilution series of the test compound were used for the tests. The MIC results were interpreted according to the CLSI documents VET01-S3. The lowest concentration of compound at which no visible growth (i.e. no turbidity) detected by the unaided eye was recorded as the MIC.
In the case of `CC(C)[C@H](NC(=O)c1ccc(C#Cc2ccc(CNC3CCCCC3)cc2)cc1)C(=O)NO` [Compound 208], the MIC PM 6391 came out at 0.4 µg/mL (≈ 0.894 µM).
Same read-out and setting: under `CC(C)[C@H](NC(=O)c1ccc(C#Cc2ccc(CNCc3ncc[nH]3)cc2)cc1)C(=O)NO` [Compound 173] stands 0.8 µg/mL (≈ 1.8 µM); under `COc1ccc(CNCc2ccc(C#Cc3ccc(C(=O)N[C@H](C(=O)NO)C(C)(C)S(C)(=O)=O)cc3)cc2)cc1` [Compound 260], ≤ 0.1 µg/mL.
`CC[C@H](C)[C@H](NC(=O)c1ccc(C#Cc2ccc(CNCCCOC)cc2)cc1)C(=O)NO` [Compound 177] showed an MIC PM 6391 of 3.1 µg/mL (≈ 6.86 µM).
